According to PubChem BioAssay (NCI):
Where “and” joins values, the source holds several entries; their conditions need not be identical. Identical values can stand only once.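 1) Cells in 96-well plates. 2) Compound, 48 h, 5 concentrations. 3) Linear interpolation between surrounding doses. 4) Unreached endpoint = highest concentration. GI50: concentration for 50% inhibition of growth. TGI denotes the concentration required for complete inhibition of growth.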

What was measured:
Assay in all cases: NCI tumour cell line growth inhibition, 48 h; in the data active = GI50 below about 0.43 µM; inactive = the rest
[1] = tested on: RPMI-8226 leukemia
[2] = tested on: BT-549 breast
[3] = tested on: MALME-3M melanoma
[4] = tested on: SN12K1 renal
[5] = tested on: LOX IMVI melanoma
[6] = tested on: SK-OV-3 ovarian
[7] = tested on: ACHN renal
[8] = tested on: SNB-19 CNS
[9] = tested on: SW-620 colon
[10] = tested on: RXF 393 renal
[11] = tested on: HOP-92 NSCLC
[12] = tested on: HOP-18 NSCLC
[13] = tested on: NCI-H226 lung
[14] = tested on: DMS 114 small cell lung
[15] = tested on: UACC-62 melanoma
[16] = tested on: HCT-15 colon
[17] = tested on: EKVX NSCLC
[18] = tested on: TK-10 renal
[19] = tested on: HT29 colon
[20] = tested on: KM20L2 colon
[21] = tested on: MDA-MB-435
[22] = tested on: NCI/ADR-RES ovarian
[23] = tested on: IGROV1 ovarian
[24] = tested on: NCI-H460 lung
[25] = tested on: HOP-62 NSCLC
[26] = tested on: DMS 273 small cell lung
[27] = tested on: SNB-78 CNS
[28] = tested on: CAKI-1 renal
[29] = tested on: UO-31 renal
[30] = tested on: HCT-116 colon
[31] = tested on: U251 CNS
[32] = tested on: KM12 colon
[33] = tested on: T-47D breast
[34] = tested on: CCRF-CEM leukemia
[35] = tested on: COLO 205 colon
[36] = tested on: 786-0 renal
[37] = tested on: A549 NSCLC
[38] = tested on: P388/ADR leukemia
[39] = tested on: OVCAR-3 ovarian
[40] = tested on: M14 melanoma
[41] = tested on: UACC-257 melanoma
[42] = tested on: A498 renal
[43] = tested on: P388 leukemia
[44] = tested on: HS 578T breast
[45] = tested on: SK-MEL-28 melanoma
[46] = tested on: RXF-631 renal
[47] = tested on: SF-539 CNS
[48] = tested on: M19-MEL melanoma
[49] = tested on: DU-145 prostate
[50] = tested on: OVCAR-5 ovarian
[51] = tested on: HL-60(TB) leukemia
[52] = tested on: K-562 leukemia
[53] = tested on: MDA-N
[54] = tested on: SN12C renal
[55] = tested on: MOLT-4 leukemia
[56] = tested on: OVCAR-4 ovarian
[57] = tested on: XF 498 CNS
[58] = tested on: SK-MEL-2 melanoma
[59] = tested on: SK-MEL-5 melanoma
[60] = tested on: MDA-MB-231 breast
[61] = tested on: PC-3 prostate
[62] = tested on: NCI-H23 lung
[63] = tested on: SF-295 CNS
[64] = tested on: OVCAR-8 ovarian
[65] = tested on: MCF7 breast
[66] = tested on: DLD-1 colon
[67] = tested on: SNB-75 CNS
[68] = tested on: HCC-2998 colon
[69] = tested on: SF-268 CNS
[70] = tested on: NCI-H522 lung
[71] = tested on: LXFL 529 NSCLC

CC[C@](O)(C(=O)O)c1cc2n(c(=O)c1CO)Cc1cc3ccccc3nc1-2
1110 nM and 412 nM: TGI [14]
224 nM and 121 nM and 88.9 nM: TGI [22]
0.0211 µM: TGI [7]
0.547 µM: TGI [48]
294 nM: TGI [43]
278 nM and 953 nM and 582 nM: TGI [41]
4.41 µM and 0.793 µM: TGI [57]
283 nM and 630 nM: GI50 [17]
active: GI50 [1] 6.77 nM and 45.8 nM | GI50 [2] 107 nM | GI50 [3] 64.2 nM and 272 nM | GI50 [5] 5.07 nM and 26.4 nM | GI50 [6] 28.3 nM and 17.6 nM | GI50 [8] 3.37 nM and 20 nM | GI50 [9] 94.8 nM and 71.3 nM and 25 nM | GI50 [10] 27.8 nM and < 22.5 nM | GI50 [11] 163 nM | GI50 [15] 3.48 nM | GI50 [16] 260 nM and 70.3 nM | GI50 [19] 35.4 nM and 110 nM | GI50 [20] 209 nM | GI50 [21] 101 nM | GI50 [22] 6.61 nM and 12 nM | GI50 [23] 29.9 nM and 197 nM | GI50 [24] < 2.5 nM | GI50 [25] 25 nM | GI50 [26] 31.6 nM | GI50 [27] 242 nM and 135 nM | GI50 [28] < 2.5 nM | GI50 [29] 18.9 nM | GI50 [31] < 2.5 nM and 10.7 nM | GI50 [33] < 2.5 nM | GI50 [34] < 2.5 nM | GI50 [35] 55.6 nM and 296 nM | GI50 [37] 5.7 nM and < 17.8 nM | GI50 [39] 77.5 nM and 268 nM and 96.5 nM | GI50 [40] 10.8 nM | GI50 [41] 23.6 nM and 37.4 nM and 87.3 nM | GI50 [42] 15 nM and 44.8 nM | GI50 [45] 147 nM and 169 nM and 49.3 nM | GI50 [47] < 2.5 nM | GI50 [49] < 2.5 nM | GI50 [50] 69.1 nM and 104 nM | GI50 [51] < 2.5 nM | GI50 [52] 38.3 nM and 137 nM and 35.7 nM | GI50 [54] 3.65 nM and < 19.3 nM | GI50 [55] < 2.5 nM | GI50 [56] 305 nM and 71.5 nM | GI50 [58] 314 nM and 390 nM | GI50 [61] 113 nM | GI50 [62] 5.8 nM and 21.5 nM | GI50 [63] 2.9 nM and < 13.4 nM | GI50 [64] 29.2 nM and 26.2 nM and 35.3 nM | GI50 [66] 311 nM and 337 nM | GI50 [67] 3.91 nM and 16 nM
2730 nM: TGI [4]
11.5 µM and 18.5 µM: TGI [2]
161 nM and 167 nM: TGI [29]
605 nM: TGI [53]
1100 nM and 476 nM and 150 nM: TGI [10]
12.9 µM and 88 µM: TGI [52]
23.4 nM and 125 nM and 34.5 nM: TGI [24]
559 nM and 417 nM: TGI [49]
347 nM and 2500 nM: TGI [51]
3.43 µM: TGI [65]
5.67 µM and 0.567 µM: TGI [11]
25 µM and 34.1 µM: TGI [9]
1700 nM and 1460 nM and 699 nM: TGI [58]
0.622 µM: TGI [30]
inactive: GI50 [18] 1100 nM | GI50 [44] 1480 nM | GI50 [57] 614 nM | GI50 [60] 969 nM
132 nM and 228 nM and 540 nM: GI50 [32]
4.38 µM and > 24.8 µM: TGI [18]
1.04 µM: TGI [46]
38.3 nM and 156 nM and 89.6 nM: TGI [59]
25 µM and 7.92 µM: TGI [16]
632 nM and 516 nM: TGI [21]
5.17 µM: TGI [61]
2600 nM and 1480 nM and 420 nM: TGI [37]
4.88 µM: TGI [12]
132 nM and 96.3 nM: TGI [26]
121 nM and 42.2 nM and 55.5 nM: TGI [15]
114 nM and 261 nM and 145 nM: TGI [42]
4.04 µM: TGI [34]
51.1 nM and 181 nM: TGI [40]
0.0525 µM: TGI [36]
7.5 µM and 0.856 µM: TGI [56]
866 nM and 332 nM and 1620 nM: TGI [13]
822 nM and 121 nM: TGI [54]
101 nM and 95.6 nM and 107 nM: TGI [63]
3.96 µM: TGI [20]
4.75 µM and 4.12 µM and 0.807 µM: TGI [3]
323 nM and 1180 nM and 866 nM: TGI [39]
75.5 nM: TGI [33]
25 µM and 13.7 µM: TGI [44]
201 nM and 71.4 nM and 343 nM: TGI [67]
784 nM and 501 nM: TGI [50]
0.779 µM and 2.21 µM and 3.85 µM: TGI [35]
38.6 nM and 164 nM and 61.5 nM: TGI [31]
25.6 µM: TGI [38]
307 nM and 686 nM and 652 nM: TGI [5]
30 µM: TGI [66]
6.84 µM: TGI [60]

CNC1=C(C)C(=O)C(C)=C(C(C)(C)CC(=O)n2cc(F)c(=O)[nH]c2=O)C1=O
> 100000 nM: TGI [5] | TGI [10] | TGI [13] | TGI [14] | TGI [15] | TGI [24] | TGI [26] | TGI [29] | TGI [31] | TGI [37] | TGI [39] | TGI [40] | TGI [41] | TGI [42] | TGI [50] | TGI [51] | TGI [54] | TGI [58] | TGI [59] | TGI [63] | TGI [67]
> 100 µM: TGI [1] | TGI [3] | TGI [6] | TGI [7] | TGI [8] | TGI [9] | TGI [68] | TGI [11] | TGI [12] | TGI [16] | TGI [17] | TGI [18] | TGI [19] | TGI [20] | TGI [23] | TGI [27] | TGI [28] | TGI [30] | TGI [32] | TGI [34] | TGI [35] | TGI [36] | TGI [69] | TGI [45] | TGI [46] | TGI [47] | TGI [48] | TGI [52] | TGI [70] | TGI [71] | TGI [55] | TGI [56] | TGI [57] | TGI [62] | TGI [64] | TGI [66]
> 53.8 µM: TGI [25]

O=C1Cc2ccccc2N1/N=C\c1ccc(O)cc1
70500 nM: TGI [67]
> 100 µM: TGI [1] | TGI [3] | TGI [6] | TGI [7] | TGI [8] | TGI [9] | TGI [68] | TGI [11] | TGI [12] | TGI [16] | TGI [17] | TGI [18] | TGI [19] | TGI [20] | TGI [23] | TGI [25] | TGI [27] | TGI [28] | TGI [30] | TGI [32] | TGI [34] | TGI [35] | TGI [36] | TGI [69] | TGI [45] | TGI [46] | TGI [47] | TGI [48] | TGI [52] | TGI [55] | TGI [56] | TGI [57] | TGI [62] | TGI [64]
> 100000 nM: TGI [5] | TGI [13] | TGI [14] | TGI [15] | TGI [24] | TGI [26] | TGI [29] | TGI [31] | TGI [37] | TGI [39] | TGI [40] | TGI [41] | TGI [42] | TGI [50] | TGI [54] | TGI [58] | TGI [59] | TGI [63]
